Laboratory results: PubChem BioAssay (NCI)
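Interpolation was linear, between the two tested concentrations surrounding the appropriate level; five concentrations were tested over 48 hours in 96-well plates. The concentration for 50% growth inhibition is given as GI50. Definition used: TGI = concentration required for complete inhibition of growth.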

Legend:
Test in all cases: NCI anticancer screen, dose series, 48 h
NCI-H226 lung = tested on: NCI-H226 lung
NCI-H23 lung = tested on: NCI-H23 lung
NCI-H460 lung = tested on: NCI-H460 lung
NCI-H522 lung = tested on: NCI-H522 lung
OVCAR-3 ovarian = tested on: OVCAR-3 ovarian
OVCAR-4 ovarian = tested on: OVCAR-4 ovarian
OVCAR-5 ovarian = tested on: OVCAR-5 ovarian
OVCAR-8 ovarian = tested on: OVCAR-8 ovarian
PC-3 prostate = tested on: PC-3 prostate
RPMI-8226 leukemia = tested on: RPMI-8226 leukemia
RXF 393 renal = tested on: RXF 393 renal
SF-268 CNS = tested on: SF-268 CNS
SF-295 CNS = tested on: SF-295 CNS
SF-539 CNS = tested on: SF-539 CNS
SK-MEL-2 melanoma = tested on: SK-MEL-2 melanoma
SK-MEL-28 melanoma = tested on: SK-MEL-28 melanoma
SK-MEL-5 melanoma = tested on: SK-MEL-5 melanoma
SK-OV-3 ovarian = tested on: SK-OV-3 ovarian
SN12C renal = tested on: SN12C renal
SNB-19 CNS = tested on: SNB-19 CNS
SNB-75 CNS = tested on: SNB-75 CNS
SR leukemia = tested on: SR leukemia
SW-620 colon = tested on: SW-620 colon
T-47D breast = tested on: T-47D breast
TK-10 renal = tested on: TK-10 renal
U251 CNS = tested on: U251 CNS
UACC-257 melanoma = tested on: UACC-257 melanoma
UACC-62 melanoma = tested on: UACC-62 melanoma
UO-31 renal = tested on: UO-31 renal

`CC1=C(C(=O)Nc2ccccc2)C(c2ccc3ccccc3c2)n2c(nc3ccccc32)N1` (stereo not drawn) showed a GI50 (NCI-H226 lung) of 12.9 µM, a TGI (NCI-H226 lung) of 34.8 µM and a GI50 (NCI-H23 lung) of 27.7 µM. For the same molecule, the TGI (NCI-H23 lung) was > 100 µM, the GI50 (NCI-H460 lung) was 15 µM and the TGI (NCI-H460 lung) was 33.6 µM. For the same molecule, the GI50 (NCI-H522 lung) was 18.1 µM, the TGI (NCI-H522 lung) was 45.7 µM and the GI50 (OVCAR-3 ovarian) was 16.4 µM. For the same molecule, the TGI (OVCAR-3 ovarian) was 31.9 µM, the GI50 (OVCAR-4 ovarian) was 15.4 µM and the TGI (OVCAR-4 ovarian) was 45.3 µM. For the same molecule, the GI50 (OVCAR-5 ovarian) was 28 µM, the TGI (OVCAR-5 ovarian) was 95.6 µM and the GI50 (OVCAR-8 ovarian) was 16.9 µM. It also gave a TGI (OVCAR-8 ovarian) of 35.9 µM, a GI50 (PC-3 prostate) of 12.4 µM and a TGI (PC-3 prostate) of 31.4 µM. The GI50 (RPMI-8226 leukemia) was 20 µM, the TGI (RPMI-8226 leukemia) was > 100 µM and the GI50 (RXF 393 renal) was 11.8 µM. For the same molecule, the TGI (RXF 393 renal) was 40.5 µM, the GI50 (SF-268 CNS) was 27.3 µM and the TGI (SF-268 CNS) was > 100 µM. The GI50 (SF-295 CNS) was 17 µM, the TGI (SF-295 CNS) was 37.6 µM and the GI50 (SF-539 CNS) was 15.5 µM. The TGI (SF-539 CNS) was 30.4 µM, the GI50 (SK-MEL-2 melanoma) was 22.1 µM and the TGI (SK-MEL-2 melanoma) was 71.5 µM. It also gave a GI50 (SK-MEL-28 melanoma) of 21.2 µM, a TGI (SK-MEL-28 melanoma) of 56.4 µM and a GI50 (SK-MEL-5 melanoma) of 58.6 µM. The TGI (SK-MEL-5 melanoma) was > 100 µM, the GI50 (SK-OV-3 ovarian) was 21.5 µM and the TGI (SK-OV-3 ovarian) was 85.7 µM. The GI50 (SN12C renal) was 17.1 µM, the TGI (SN12C renal) was 40.2 µM and the GI50 (SNB-19 CNS) was 22.7 µM. It also gave a TGI (SNB-19 CNS) of 59.2 µM, a GI50 (SNB-75 CNS) of 10.4 µM and a TGI (SNB-75 CNS) of 30.5 µM. The GI50 (SR leukemia) was 22 µM, the TGI (SR leukemia) was > 100 µM and the GI50 (SW-620 colon) was 22.3 µM. The TGI (SW-620 colon) was > 100 µM, the GI50 (T-47D breast) was 58.5 µM and the TGI (T-47D breast) was > 100 µM. The GI50 (TK-10 renal) was 19.3 µM, the TGI (TK-10 renal) was 48.6 µM and the GI50 (U251 CNS) was 16.3 µM. The TGI (U251 CNS) was 32.5 µM, the GI50 (UACC-257 melanoma) was 67.1 µM and the TGI (UACC-257 melanoma) was > 100 µM. For the same molecule, the GI50 (UACC-62 melanoma) was 20.3 µM, the TGI (UACC-62 melanoma) was 63.5 µM and the GI50 (UO-31 renal) was 12.6 µM. For the same molecule, the TGI (UO-31 renal) was 39.9 µM.
